Tested on: 227483-062-R1-J1-PDC complex spheroids with HUVEC/MSC, viability
Experiment: Anticancer human tumor 227483-062-R1-J1-PDC patient-derived pancreatic carcinoma cell line growth inhibition [CLK]
Conditions: for IC50: curve of first compound; for viability, T/C: stronger effect = lower value
Outline: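 Multi-cell-type spheroids combined patient-derived tumor cells with HUVEC endothelial cells and human mesenchymal stem cells. Paired agents were dosed in half-log steps down from about clinical Cmax, or from 10 microM where Cmax was unknown.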
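Also: spheroids exposed to compounds for seven days before readout.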
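For viability, T/C in this document: percent of DMSO vehicle control luminescence as 100% viability.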

**Q.** For `C=CC(=O)Nc1cc(Nc2nccc(-c3cn(C)c4ccccc34)n2)c(OC)cc1N(C)CCN(C)C` + CN1CCN(c2cc(C(=O)Nc3cc4cc(-c5cnn(C)c5)ccc4cn3)ccn2)CC1, which IC50 (second compound 0.0316 µM) is on record?
**A.** > 300 nM

**Q.** What about the IC50 (second compound 0.1 µM) of the same compound?
**A.** > 300 nM

**Q.** What about the IC50 (second compound 0.316 µM) of the same compound?
**A.** < 0.949 nM

**Q.** What about the IC50 (second compound 1 µM) of the same compound?
**A.** < 0.949 nM

**Q.** And the IC50 (second compound 3.16 µM)?
**A.** < 0.949 nM

**Q.** What about the IC50 (second compound 10 µM) of the same compound?
**A.** < 0.949 nM

**Q.** And the viability, T/C (second compound 0.0316 µM, first compound 0.000949 µM)?
**A.** 101%

**Q.** And the viability, T/C (second compound 0.0316 µM, first compound 0.003 µM)?
**A.** 104%

**Q.** What about the viability, T/C (second compound 0.0316 µM, first compound 0.00949 µM) of the same compound?
**A.** 117%

**Q.** What about the viability, T/C (second compound 0.0316 µM, first compound 0.03 µM) of the same compound?
**A.** 99.1%

**Q.** What about the viability, T/C (second compound 0.0316 µM, first compound 0.0949 µM) of the same compound?
**A.** 87.5%

**Q.** What about the viability, T/C (second compound 0.0316 µM, first compound 0.3 µM) of the same compound?
**A.** 79.2%

**Q.** What about the viability, T/C (second compound 0.1 µM, first compound 0.000949 µM) of the same compound?
**A.** 71.5%

**Q.** What about the viability, T/C (second compound 0.1 µM, first compound 0.003 µM) of the same compound?
**A.** 64.6%

**Q.** What about the viability, T/C (second compound 0.1 µM, first compound 0.00949 µM) of the same compound?
**A.** 61.5%

**Q.** What about the viability, T/C (second compound 0.1 µM, first compound 0.03 µM) of the same compound?
**A.** 77%

**Q.** And the viability, T/C (second compound 0.1 µM, first compound 0.0949 µM)?
**A.** 68%

**Q.** What about the viability, T/C (second compound 0.1 µM, first compound 0.3 µM) of the same compound?
**A.** 56%

**Q.** What about the viability, T/C (second compound 0.316 µM, first compound 0.000949 µM) of the same compound?
**A.** 4.77%

**Q.** And the viability, T/C (second compound 0.316 µM, first compound 0.003 µM)?
**A.** 5.57%

**Q.** What about the viability, T/C (second compound 0.316 µM, first compound 0.00949 µM) of the same compound?
**A.** 5.48%

**Q.** What about the viability, T/C (second compound 0.316 µM, first compound 0.03 µM) of the same compound?
**A.** 5.73%

**Q.** And the viability, T/C (second compound 0.316 µM, first compound 0.0949 µM)?
**A.** 8.02%

**Q.** What about the viability, T/C (second compound 0.316 µM, first compound 0.3 µM) of the same compound?
**A.** 4.25%

**Q.** What about the viability, T/C (second compound 1 µM, first compound 0.000949 µM) of the same compound?
**A.** 3.69%

**Q.** And the viability, T/C (second compound 1 µM, first compound 0.003 µM)?
**A.** 1.6%

**Q.** And the viability, T/C (second compound 1 µM, first compound 0.00949 µM)?
**A.** 2.26%

**Q.** And the viability, T/C (second compound 1 µM, first compound 0.03 µM)?
**A.** 4.39%

**Q.** What about the viability, T/C (second compound 1 µM, first compound 0.0949 µM) of the same compound?
**A.** 2.66%

**Q.** And the viability, T/C (second compound 1 µM, first compound 0.3 µM)?
**A.** 1.57%

**Q.** What about the viability, T/C (second compound 3.16 µM, first compound 0.000949 µM) of the same compound?
**A.** 3.65%

**Q.** What about the viability, T/C (second compound 3.16 µM, first compound 0.003 µM) of the same compound?
**A.** 4.21%

**Q.** And the viability, T/C (second compound 3.16 µM, first compound 0.00949 µM)?
**A.** 3%

**Q.** And the viability, T/C (second compound 3.16 µM, first compound 0.03 µM)?
**A.** 7.42%

**Q.** What about the viability, T/C (second compound 3.16 µM, first compound 0.0949 µM) of the same compound?
**A.** 2.8%

**Q.** And the viability, T/C (second compound 3.16 µM, first compound 0.3 µM)?
**A.** 5.59%

**Q.** And the viability, T/C (second compound 10 µM, first compound 0.000949 µM)?
**A.** 3.23%

**Q.** And the viability, T/C (second compound 10 µM, first compound 0.003 µM)?
**A.** 6.58%

**Q.** And the viability, T/C (second compound 10 µM, first compound 0.00949 µM)?
**A.** 2.57%

**Q.** And the viability, T/C (second compound 10 µM, first compound 0.03 µM)?
**A.** 4.96%

**Q.** And the viability, T/C (second compound 10 µM, first compound 0.0949 µM)?
**A.** 2.09%

**Q.** What about the viability, T/C (second compound 10 µM, first compound 0.3 µM) of the same compound?
**A.** 1.83%

**Q.** What does the source list for `CC1(C)CCC(CN2CCN(c3ccc(C(=O)NS(=O)(=O)c4ccc(NCC5CCOCC5)c([N+](=O)[O-])c4)c(Oc4cnc5[nH]ccc5c4)c3)CC2)=C(c2ccc(Cl)cc2)C1` + CN1CCN(c2cc(C(=O)Nc3cc4cc(-c5cnn(C)c5)ccc4cn3)ccn2)CC1?
**A.** IC50 (second compound 0.0316 µM): 5670 nM; IC50 (second compound 0.1 µM): 4230 nM; IC50 (second compound 0.316 µM): < 31.6 nM; IC50 (second compound 1 µM): < 31.6 nM; IC50 (second compound 3.16 µM): < 31.6 nM; IC50 (second compound 10 µM): < 31.6 nM; viability, T/C (second compound 0.0316 µM, first compound 0.0316 µM): 93.9%; viability, T/C (second compound 0.0316 µM, first compound 0.1 µM): 96.5%; viability, T/C (second compound 0.0316 µM, first compound 0.316 µM): 110%; viability, T/C (second compound 0.0316 µM, first compound 1 µM): 110%; viability, T/C (second compound 0.0316 µM, first compound 3.16 µM): 89.8%; viability, T/C (second compound 0.0316 µM, first compound 10 µM): 11.5%; viability, T/C (second compound 0.1 µM, first compound 0.0316 µM): 58%; viability, T/C (second compound 0.1 µM, first compound 0.1 µM): 58.1%; viability, T/C (second compound 0.1 µM, first compound 0.316 µM): 63.1%; viability, T/C (second compound 0.1 µM, first compound 1 µM): 62.7%; viability, T/C (second compound 0.1 µM, first compound 3.16 µM): 81.3%; viability, T/C (second compound 0.1 µM, first compound 10 µM): 6.59%; viability, T/C (second compound 0.316 µM, first compound 0.0316 µM): 5.04%; viability, T/C (second compound 0.316 µM, first compound 0.1 µM): 6.53%; viability, T/C (second compound 0.316 µM, first compound 0.316 µM): 5.51%; viability, T/C (second compound 0.316 µM, first compound 1 µM): 5.88%; viability, T/C (second compound 0.316 µM, first compound 3.16 µM): 6.54%; viability, T/C (second compound 0.316 µM, first compound 10 µM): 1.59%; viability, T/C (second compound 1 µM, first compound 0.0316 µM): 2.1%; viability, T/C (second compound 1 µM, first compound 0.1 µM): 2.74%; viability, T/C (second compound 1 µM, first compound 0.316 µM): 2.88%; viability, T/C (second compound 1 µM, first compound 1 µM): 2.08%; viability, T/C (second compound 1 µM, first compound 3.16 µM): 1.44%; viability, T/C (second compound 1 µM, first compound 10 µM): 0.36%; viability, T/C (second compound 3.16 µM, first compound 0.0316 µM): 3.39%; viability, T/C (second compound 3.16 µM, first compound 0.1 µM): 4.13%; viability, T/C (second compound 3.16 µM, first compound 0.316 µM): 2.75%; viability, T/C (second compound 3.16 µM, first compound 1 µM): 2.22%; viability, T/C (second compound 3.16 µM, first compound 3.16 µM): 2.43%; viability, T/C (second compound 3.16 µM, first compound 10 µM): 2.73%; viability, T/C (second compound 10 µM, first compound 0.0316 µM): 2.85%; viability, T/C (second compound 10 µM, first compound 0.1 µM): 2.4%; viability, T/C (second compound 10 µM, first compound 0.316 µM): 1.5%; viability, T/C (second compound 10 µM, first compound 1 µM): 4.14%; viability, T/C (second compound 10 µM, first compound 3.16 µM): 1.34%; viability, T/C (second compound 10 µM, first compound 10 µM): 0.39%

— PubChem BioAssay AID2060623 (Molecular Pharmacology Branch, DTP, NCI, 2025)
